Reference: publication PMC7317179 (The Korean Journal of Physiology & Pharmacology : …, 2020)

Molecular target: T1, anoctamin-1 (hANO1, TMEM16A) (Homo sapiens, UniProt Q5XXA6)
T1 sequence (Q5XXA6 1-986): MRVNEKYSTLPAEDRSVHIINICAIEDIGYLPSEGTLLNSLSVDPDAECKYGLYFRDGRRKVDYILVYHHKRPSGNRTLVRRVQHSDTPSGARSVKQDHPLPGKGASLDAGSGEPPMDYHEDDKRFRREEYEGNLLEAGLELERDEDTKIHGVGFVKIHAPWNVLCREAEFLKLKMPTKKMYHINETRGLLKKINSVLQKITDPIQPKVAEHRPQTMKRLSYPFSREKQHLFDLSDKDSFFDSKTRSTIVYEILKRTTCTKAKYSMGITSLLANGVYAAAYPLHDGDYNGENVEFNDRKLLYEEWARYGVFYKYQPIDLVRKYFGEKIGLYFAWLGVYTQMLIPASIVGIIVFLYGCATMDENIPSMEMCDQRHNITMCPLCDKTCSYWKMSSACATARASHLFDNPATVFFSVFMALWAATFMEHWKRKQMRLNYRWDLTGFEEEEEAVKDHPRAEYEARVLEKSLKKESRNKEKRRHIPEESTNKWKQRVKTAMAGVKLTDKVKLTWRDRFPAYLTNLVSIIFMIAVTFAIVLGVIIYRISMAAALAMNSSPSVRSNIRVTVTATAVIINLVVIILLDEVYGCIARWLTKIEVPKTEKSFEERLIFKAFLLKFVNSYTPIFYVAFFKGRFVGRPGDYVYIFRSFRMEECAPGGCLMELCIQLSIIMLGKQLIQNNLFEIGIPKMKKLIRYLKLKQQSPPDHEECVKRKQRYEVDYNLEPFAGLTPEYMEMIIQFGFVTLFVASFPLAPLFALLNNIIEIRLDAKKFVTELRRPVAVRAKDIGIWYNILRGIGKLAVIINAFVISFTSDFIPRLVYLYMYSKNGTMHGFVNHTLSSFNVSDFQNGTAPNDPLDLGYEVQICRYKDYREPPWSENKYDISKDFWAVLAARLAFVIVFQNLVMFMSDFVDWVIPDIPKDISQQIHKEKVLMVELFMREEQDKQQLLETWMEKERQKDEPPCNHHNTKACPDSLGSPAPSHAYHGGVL
Experiment: whole-cell patch clamp, hANO1-HEK293T
Type: cell-based

`O=c1cc(-c2ccc(O)c(O)c2)oc2cc(O)cc(O)c12` [compound 5, luteolin] was tested, and the IC50 was 27.9 ± 1.61 µM.
